The values below come from ChEMBL document CHEMBL1140470, “Synthesis and in vitro evaluation of a selective antagonist and the corresponding radioligand for the prostaglandin D2 receptor CRTH2” (Bioorg Med Chem Lett, 2007).

Where only a bound is given, the exact number is not on record here.

For test [1], the target named is T1, Prostaglandin D2 receptor 2 (Homo sapiens) (UniProt Q9Y5Y4).
T1 sequence (whole entry): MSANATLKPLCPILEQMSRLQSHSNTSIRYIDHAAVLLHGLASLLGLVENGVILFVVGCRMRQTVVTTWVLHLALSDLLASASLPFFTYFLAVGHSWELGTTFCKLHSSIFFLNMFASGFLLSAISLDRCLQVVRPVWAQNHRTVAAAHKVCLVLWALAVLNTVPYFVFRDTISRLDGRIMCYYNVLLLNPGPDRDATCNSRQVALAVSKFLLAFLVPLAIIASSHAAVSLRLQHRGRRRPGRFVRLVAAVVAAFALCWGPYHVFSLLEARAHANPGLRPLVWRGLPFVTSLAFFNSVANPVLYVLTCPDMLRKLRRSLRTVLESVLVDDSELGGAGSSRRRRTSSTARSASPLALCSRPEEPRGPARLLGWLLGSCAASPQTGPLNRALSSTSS
Description: (§1) Displacement of [3H]TRQ11238 from human CRTH2 receptor expressed in HEK293 cells. In kind it is cell-based. The settings on record: tested as the 3H-labelled form. Background: Displacement assays read how much labelled ligand stays bound in the presence of the test substance.

In test [2] the target is T2, Prostaglandin D2 receptor 2 (Homo sapiens, UniProt Q9Y5Y4).
T2 sequence (Q9Y5Y4 whole entry): T1 sequence (whole entry)
The experiment in a line: Displacement of [3H]PGD2 from human CRTH2 receptor.

Test [3] has as its target T2, Prostaglandin D2 receptor 2. The experiment in a line: Antagonist activity at human CRTH2 receptor assessed as inhibition of PGD2-induced signaling by inositol-phosphate assay. In kind it is functional.
Another test has as its system CRTH2 (Homo sapiens). The experiment in a line: Selectivity for CRTH2 over DP and TP receptors.
The target in test [4] is T2, Prostaglandin D2 receptor 2. The test is described as §1. It counts as cell-based.

By Ki is commonly meant the dissociation constant of the complex between target and ligand, obtained from inhibition or displacement. A word on the IC50: it is the concentration at which inhibition is half-maximal. One may read the Kd as the constant that tells how readily two partners part at equilibrium.

`O=C(O)Cn1cc(CCN(Cc2ccccc2)S(=O)(=O)c2ccc(F)cc2)c2ccccc21`: the Bmax in test [1] was 2790 fmol/mg. Further, the Ki in test [2] was 0.631 nM. For the same compound, the IC50 in test [3] was 3.98 nM. Further, in the test with CRTH2 (Homo sapiens), the Selectivity ratio is greater than 1000.

Take `[3H]c1cc([3H])cc(CN(CCc2cn(CC(=O)O)c3ccccc23)S(=O)(=O)c2ccc(F)cc2)c1`: the Kd in test [4] was 1 nM.
